Results on 3 molecules are retold here after patent US5185319A, “Stabilization of organic compounds” (National Research Development Corporation, priority 1989, dated 1993).

Series [1] addresses porcine insulin (Sus scrofa, UniProt P01315). Nature of the series: Stability of insulin in solution with chelating agent, reverse phase HPLC. It counts as physicochemical. The settings on record: pH 7.0 solution; for effect on stability of insulin (amount of insulin present as percentage of the original amount): 100 μM chelating agent, 4, 8 and 12 weeks. The procedure:
A solution was prepared corresponding to that described in Example 1 containing porcine insulin and being pyrogen-free but not sterile. For comparative purposes a further solution was prepared in which the hydroxypyridone was replaced by the alternative chelating agent 3-hydroxy-2-methyl-4-pyrone.
The solutions were incubated at either 4° C. or 37° C. and the stability of the insulin was studied over a period of 12 weeks through use of the reverse phase HPLC method described by Seipke et al, Angew. Chem. Int. Ed. Engl., 1986, 25, 535-552 and by Grau, Diabetologia, 1985, 28, 458-463. The amount of insulin present in the solution at 4, 8 and 12 weeks was then calculated as a percentage of the original amount present.

Series [2] has as its system insulin. Nature of the series: Investigation of chelating agents for stabilization of insulin. Type of series: physicochemical.

Chain of porcine insulin (P01315 25-54 limits assumed): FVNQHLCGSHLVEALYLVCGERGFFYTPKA
Chain of porcine insulin (P01315 88-108 limits assumed): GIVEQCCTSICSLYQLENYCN

For the molecule `COCCn1ccc(=O)c(O)c1C` [3-hydroxy-1-(2'-methoxyethyl)-2-methylpyrid-4-one], the “degradation of insulin over the whole period of 12 weeks” value in series [1] (incubated at 4° C., 100 μM chelating agent) was “no degradation was observed”. The “effect on stability of insulin (amount of insulin present as percentage of the original amount)” value was “stabilises insulin” in series [1] (incubated at 4° C.) and “stabilises insulin, to some extent” in series [1] (incubated at 37° C.).

With `O=C(O)CN(CCN(CC(=O)O)CC(=O)O)CC(=O)O` [ethylene diamine tetra-acetic acid], the “stabilizing effect on insulin” value in series [2] is listed as “no stabilizing effect”.

For `Cc1occc(=O)c1O` [3-hydroxy-2-methyl-4-pyrone], the “effect on stability of insulin (amount of insulin present as percentage of the original amount)” value in series [1] (incubated at 4° C.) and in series [1] (incubated at 37° C.) was “destabilises insulin” throughout. Also, the “stabilizing effect on insulin” value in series [2] is “no stabilizing effect”.
